The results in this text go back to US20260125382A1, “COMPOUNDS FOR INHIBITING OR DEGRADING CDK2 AND/OR CDK9 AND MEDICINAL USE THEREOF” (KOREA RESEARCH INSTITUTE OF CHEMICAL TECHNOLOGY, priority 2022, published 2026).

The target in one assay is T1, CDK2 (Homo sapiens, UniProt P24941).
T1 construct: endogenous in cells; host or cells: MDA-MB-231
In words: CDK protein degradation activity (Western blotting), CDK2. In kind it is cell-based. The following applies: MDA-MB-231 cells, 16 hours, Western blot. The procedure:
(§1) In order to evaluate the CDK protein degradation activity of the compounds according to the present invention, the following experiment was conducted.
(§2) MDA-MB-231 cells were seeded at 5×10^5 cells per well in a 6-well plate. The next day, the compounds were treated in each well to achieve final concentrations of 100 nM, 1 μM, and 10 μM. For the control group, an equal amount of DMSO was treated in the well as the compound. After 16 hours of treatment, cells were collected, and cell lysates were prepared using Triton X-100 lysis buffer (50 mM HEPES, pH 7.5, 40 mM NaCl, 1% Triton X-100, 1 mM EDTA, 1 mM EGTA, 10 mM pyrophosphate, 10 mM β-glycerophosphate, 50 mM NaF, 1 mM NaVO4, protease inhibitor). Cell lysates were quantified and separated by size using sodium dodecyl sulfate-polyacrylamide gel electrophoresis (SDS-PAGE). Western blotting was then performed using antibodies that recognize CDK2, CDK9, and tubulin, respectively. The results obtained by Western blotting were quantitatively analyzed using the ImageJ program, and representative images according to the experimental results are shown in FIG. 1.

For another assay, the target named is T2, CDK9 (Homo sapiens, UniProt P50750).
T2 construct: endogenous in cells; host or cells: MDA-MB-231
Put plainly: CDK protein degradation activity (Western blotting), CDK9. The settings on record: MDA-MB-231 cells, 16 hours, Western blot. In kind it is cell-based. The procedure: as §1, §2

T2 sequence (P50750 whole entry): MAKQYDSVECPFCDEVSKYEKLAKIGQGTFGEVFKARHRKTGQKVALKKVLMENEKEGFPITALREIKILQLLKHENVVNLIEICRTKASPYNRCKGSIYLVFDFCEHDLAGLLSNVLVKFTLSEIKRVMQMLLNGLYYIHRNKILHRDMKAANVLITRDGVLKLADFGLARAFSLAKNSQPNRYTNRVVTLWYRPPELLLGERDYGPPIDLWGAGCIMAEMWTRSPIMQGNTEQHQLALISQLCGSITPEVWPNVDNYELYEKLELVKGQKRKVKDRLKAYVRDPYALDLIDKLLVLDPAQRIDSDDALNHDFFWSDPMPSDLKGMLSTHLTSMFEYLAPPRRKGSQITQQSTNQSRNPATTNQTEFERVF

As for `O=C1CCC(N2C(=O)c3cc(F)c(N4CCC(C(=O)N5CCC(CN6CCC(CCNc7ncnc8c7ncn8[C@H]7C[C@@H](NC(=O)Cc8ccccc8)C7)CC6)CC5)CC4)cc3C2=O)C(=O)N1` (stereo partly drawn) [Compound 461, N-((1s,3s)-3-(6-((2-(1-((1-(1-(2-(2,6-dioxopiperidin-3-yl)-6-fluoro-1,3-dioxoisoindolin-5-yl)piperidin-4-carbonyl)piperidin-4-yl)methyl)piperidin-4-yl)ethyl)amino)-9H-purin-9-yl)cyclobutyl)-2-phenylacetamide], on CDK2, the “Enzyme degradation CDK2 (% remaining) @ 0.1 μM” value is reported as 70%, the “Enzyme degradation CDK2 (% remaining) @ 1 μM” value stood at 40% and the “Enzyme degradation CDK2 (% remaining) @ 10 μM” value was 40%. On CDK9, the “Enzyme degradation CDK9 (% remaining) @ 0.1 μM” value amounted to 30%, the “Enzyme degradation CDK9 (% remaining) @ 1 μM” value came out at 0% and the “Enzyme degradation CDK9 (% remaining) @ 10 μM” value amounted to 0%.

Turning to `O=C1CC[C@@H](c2cccc(OCC(=O)N3CCC(OCCN4CCN(c5ccc(Nc6ncnc7c6ncn7C6CC(NC(=O)Cc7ccccc7)C6)cc5)CC4)CC3)c2)C(=O)N1` (stereo partly drawn) [Compound 251, N-((1s,3s)-3-(6-((4-(4-(2-((1-(2-(3-(2,6-dioxopiperidin-3-yl)phenoxy)acetyl)piperidin-4-yl)oxy)ethyl)piperazin-1-yl)phenyl)amino)-9H-purin-9-yl)cyclobutyl)-2-phenylacetamide], at CDK2, the “Enzyme degradation CDK2 (% remaining) @ 0.1 μM” value is reported as 0/0/0%, the “Enzyme degradation CDK2 (% remaining) @ 1 μM” value is given as 0/0/0% and the “Enzyme degradation CDK2 (% remaining) @ 10 μM” value is given as 0/0/0%. At CDK9, the “Enzyme degradation CDK9 (% remaining) @ 0.1 μM” value is on record as 30%, the “Enzyme degradation CDK9 (% remaining) @ 1 μM” value turned out to be 0% and the “Enzyme degradation CDK9 (% remaining) @ 10 μM” value worked out at 0%.

Consider `O=C(COc1ccc2c(c1)C(=O)N(C1CCC(=O)NC1=O)C2=O)NC[C@H]1CC[C@H](CN2CCN(c3ccc(Nc4ncnc5c4ncn5[C@H]4C[C@@H](NC(=O)Cc5ccccc5)C4)cc3)CC2)CC1` (stereo partly drawn) [Compound 221, 2-((2-(2,6-dioxopiperidin-3-yl)-1,3-dioxoisoindolin-5-yl)oxy)-N-(((1r,4r)-4-((4-(4-((9-((1s,3s)-3-(2-phenylacetamido)cyclobutyl)-9H-purin-6-yl)amino)phenyl)piperazin-1-yl)methyl)cyclohexyl)methyl)acetamide], for which, at CDK2, the “Enzyme degradation CDK2 (% remaining) @ 0.1 μM” value is 100/100/100%, the “Enzyme degradation CDK2 (% remaining) @ 1 μM” value is listed as 100/100/100% and the “Enzyme degradation CDK2 (% remaining) @ 10 μM” value was 100/100/100%. Moreover, on CDK9, the “Enzyme degradation CDK9 (% remaining) @ 0.1 μM” value was 100%, the “Enzyme degradation CDK9 (% remaining) @ 1 μM” value was 60% and the “Enzyme degradation CDK9 (% remaining) @ 10 μM” value was 0%.

As to `N#Cc1cccc(C(=O)NC2CC(n3cnc4c(Nc5ccc(N6CCN(CC7CCN(C(=O)C8CN(c9ccc%10c(c9)C(=O)N([C@H]9CCC(=O)NC9=O)C%10=O)C8)CC7)CC6)cc5)ncnc43)C2)n1` (stereo partly drawn) [Compound 454, 6-cyano-N-((1s,3s)-3-(6-((4-(4-((1-(1-(2-(2,6-dioxopiperidin-3-yl)-1,3-dioxoisoindolin-5-yl)azetidin-3-carbonyl)piperidin-4-yl)methyl)piperazin-1-yl)phenyl)amino)-9H-purin-9-yl)cyclobutyl)picolinamide], on CDK2, the “Enzyme degradation CDK2 (% remaining) @ 0.1 μM” value came to 30%, the “Enzyme degradation CDK2 (% remaining) @ 1 μM” value was determined as 20% and the “Enzyme degradation CDK2 (% remaining) @ 10 μM” value amounted to 10%. Besides, at CDK9, the “Enzyme degradation CDK9 (% remaining) @ 0.1 μM” value is reported as 0/0/0%, the “Enzyme degradation CDK9 (% remaining) @ 1 μM” value was 0/0/0% and the “Enzyme degradation CDK9 (% remaining) @ 10 μM” value was 0/0/0%.
